Test results as given in patent US9663473B2 (Actelion Pharmaceuticals Ltd, priority 2013, dated 2017).
Structures can show the parent of a compound that is named as a salt.

target: T1, recombinant human ALX receptor (Homo sapiens, UniProt P25090); test: Intracellular calcium measurements (FLIPR), ALX receptor agonistic activity; assay type: cell-based; settings: HEK293-hALXR-Gα16 cells, Fluo-4 calcium signal, normalized to WKYMVm 10 nM
T1 construct: expressed in transfected cells; host or cells: HEK293 (HEK293-hALXR-Gα16)
T1 sequence (P25090 1-351): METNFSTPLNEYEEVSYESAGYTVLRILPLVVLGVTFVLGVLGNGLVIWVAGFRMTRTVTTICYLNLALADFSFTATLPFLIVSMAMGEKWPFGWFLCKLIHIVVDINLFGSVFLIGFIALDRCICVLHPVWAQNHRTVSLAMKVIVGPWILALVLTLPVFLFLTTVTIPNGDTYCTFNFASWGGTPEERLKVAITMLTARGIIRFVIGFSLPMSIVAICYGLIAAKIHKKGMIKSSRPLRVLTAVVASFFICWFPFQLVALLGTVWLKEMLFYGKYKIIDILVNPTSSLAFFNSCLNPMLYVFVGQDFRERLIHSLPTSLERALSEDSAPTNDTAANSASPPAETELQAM
In short: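 Agonist-induced calcium flux was read by FLIPR (488/540 nm) as baseline-subtracted peak emission, expressed relative to WKYMVm at 10 nM final. Cells used: HEK293-hALXR-Gα16, dye-loaded 60 min at 37° C. with 1 μM Fluo-4 AM before compound dose-response addition.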

SMILES	EC50
COc1ccc(CC(NC(=O)NCc2cccc(Cl)c2)c2nc3ccccc3[nH]2)cc1 (stereo not shown) [Example 46, 1-(1-(1H-Benzo[d]imidazol-2-yl)-2-(4-methoxyphenyl)ethyl)-3-(3-chlorobenzyl)urea]	0.601 µM
COc1ccc(CC(NC(=O)NCCc2cccc(OC)c2)c2nc3ccccc3[nH]2)cc1 (stereo not shown) [Example 47, 1-(1-(1H-Benzo[d]imidazol-2-yl)-2-(4-methoxyphenyl)ethyl)-3-(3-methoxyphenethyl)urea]	0.137 µM
COc1ccc(CC(NC(=O)NCc2csc(C)n2)c2nc3ccccc3[nH]2)cc1 (stereo not shown) [Example 48, 1-(1-(1H-Benzo[d]imidazol-2-yl)-2-(4-methoxyphenyl)ethyl)-3-((2-methylthiazol-4-yl)methyl)urea]	1.01 µM
CCOCc1ccccc1CNC(=O)NC(Cc1ccc(OC)cc1)c1nc2ccccc2[nH]1 (stereo not shown) [Example 50, 1-(1-(1H-Benzo[d]imidazol-2-yl)-2-(4-methoxyphenyl)ethyl)-3-(2-(ethoxymethyl)benzyl)urea]	0.136 µM
COc1ccc(CC(NC(=O)NCc2cnc3ccccn23)c2nc3ccccc3[nH]2)cc1 (stereo not shown) [Example 51, 1-(1-(1H-Benzo[d]imidazol-2-yl)-2-(4-methoxyphenyl)ethyl)-3-(imidazo[1,2-a]pyridin-3-ylmethyl)urea]	0.99 µM
COc1ccc(CC(NC(=O)NCC2CCCC2)c2nc3ccccc3[nH]2)cc1 (stereo not shown) [Example 52, 1-(1-(1H-Benzo[d]imidazol-2-yl)-2-(4-methoxyphenyl)ethyl)-3-(cyclopentylmethyl)urea]	0.221 µM
COc1ccc(CCNC(=O)NC(Cc2ccc(OC)cc2)c2nc3ccccc3[nH]2)cc1 (stereo not shown) [Example 53, 1-(1-(1H-Benzo[d]imidazol-2-yl)-2-(4-methoxyphenyl)ethyl)-3-(4-methoxyphenethyl)urea]	0.539 µM
COc1ccc(CCNC(=O)N[C@H](Cc2ccc(OC)cc2)c2nc3ccccc3[nH]2)cc1 [Example 54, (R)-1-(1-(1H-Benzo[d]imidazol-2-yl)-2-(4-methoxyphenyl)ethyl)-3-(4-methoxyphenethyl)urea]	0.987 µM
COc1ccc(C[C@@H](NC(=O)NCCc2ccc(F)cc2)c2nc3ccccc3[nH]2)cc1 [Example 55, (R)-1-(1-(1H-Benzo[d]imidazol-2-yl)-2-(4-methoxyphenyl)ethyl)-3-(4-fluorophenethyl)urea hydrochloride]	0.137 µM
COc1ccc(C[C@@H](NC(=O)NCCc2ccccc2Cl)c2nc3ccccc3[nH]2)cc1 [Example 56, (R)-1-(1-(1H-Benzo[d]imidazol-2-yl)-2-(4-methoxyphenyl)ethyl)-3-(2-chlorophenethyl)urea hydrochloride]	0.109 µM
COCCNC(=O)N[C@H](Cc1ccc(OC)cc1)c1nc2ccccc2[nH]1 [Example 59, (R)-1-(1-(1H-Benzo[d]imidazol-2-yl)-2-(4-methoxyphenyl)ethyl)-3-(2-methoxyethyl)urea hydrochloride]	0.316 µM
CCOc1ccccc1CNC(=O)N[C@H](Cc1ccc(OC)cc1)c1nc2ccccc2[nH]1 [Example 60, (R)-1-(1-(1H-Benzo[d]imidazol-2-yl)-2-(4-methoxyphenyl)ethyl)-3-(2-ethoxybenzyl)urea hydrochloride]	0.161 µM
COc1ccc(C[C@@H](NC(=O)NCCc2cccc(Cl)c2)c2nc3ccccc3[nH]2)cc1 [Example 61, (R)-1-(1-(1H-Benzo[d]imidazol-2-yl)-2-(4-methoxyphenyl)ethyl)-3-(3-chlorophenethyl)urea hydrochloride]	0.239 µM
COc1ccc(C[C@@H](NC(=O)NCCc2ccccc2C)c2nc3ccccc3[nH]2)cc1 [Example 63, (R)-1-(1-(1H-Benzo[d]imidazol-2-yl)-2-(4-methoxyphenyl)ethyl)-3-(2-methylphenethyl)urea hydrochloride]	0.105 µM
COc1ccc(C[C@@H](NC(=O)NCCC2CCCN2C)c2nc3ccccc3[nH]2)cc1 (stereo partly drawn) [Example 65, 1-((R)-1-(1H-Benzo[d]imidazol-2-yl)-2-(4-methoxyphenyl)ethyl)-3-(2-(1-methylpyrrolidin-2-yl)ethyl)urea dihydrochloride]	0.29 µM
COc1ccc(C[C@@H](NC(=O)NCCc2ccc(C)cc2)c2nc3ccccc3[nH]2)cc1 [Example 66, (R)-1-(1-(1H-Benzo[d]imidazol-2-yl)-2-(4-methoxyphenyl)ethyl)-3-(4-methylphenethyl)urea hydrochloride]	0.438 µM
COc1ccc(C[C@@H](NC(=O)NCCc2ccccc2)c2nc3ccccc3[nH]2)cc1 [Example 67, (R)-1-(1-(1H-Benzo[d]imidazol-2-yl)-2-(4-methoxyphenyl)ethyl)-3-phenethylurea]	0.415 µM
COc1ccc(C[C@@H](NC(=O)NCCc2ccccc2F)c2nc3ccccc3[nH]2)cc1 [Example 68, (R)-1-(1-(1H-Benzo[d]imidazol-2-yl)-2-(4-methoxyphenyl)ethyl)-3-(2-fluorophenethyl)urea hydrochloride]	0.217 µM
COc1ccc(C[C@@H](NC(=O)NCCC#N)c2nc3ccccc3[nH]2)cc1 [Example 69, (R)-1-(1-(1H-Benzo[d]imidazol-2-yl)-2-(4-methoxyphenyl)ethyl)-3-(2-cyanoethyl)urea]	0.637 µM
COc1ccc(C[C@@H](NC(=O)N2CCCCC2)c2nc3ccccc3[nH]2)cc1 [Example 86, (R)—N-(1-(1H-Benzo[d]imidazol-2-yl)-2-(4-methoxyphenyl)ethyl)piperidine-1-carboxamide]	0.4 µM

Compounds with a lower EC50, results first:

EC50	SMILES
0.099 µM	CCOc1ccccc1CCNC(=O)N[C@H](Cc1ccc(OC)cc1)c1nc2ccccc2[nH]1 [Example 73, (R)-1-(1-(1H-Benzo[d]imidazol-2-yl)-2-(4-methoxyphenyl)ethyl)-3-(2-ethoxyphenethyl)urea]
0.085 µM	COc1ccc(CC(NC(=O)NC2CCN(C)CC2)c2nc3ccccc3[nH]2)cc1 (stereo not shown) [Example 49, 1-(1-(1H-Benzo[d]imidazol-2-yl)-2-(4-methoxyphenyl)ethyl)-3-(1-methylpiperidin-4-yl)urea]
0.082 µM	COc1ccc(C[C@@H](NC(=O)NCC2CCCO2)c2nc3ccccc3[nH]2)cc1 (stereo partly drawn) [Example 57, 1-((R)-1-(1H-Benzo[d]imidazol-2-yl)-2-(4-methoxyphenyl)ethyl)-3-((tetrahydrofuran-2-yl)methyl)urea hydrochloride]
0.067 µM	COc1ccc(C[C@@H](NC(=O)NCC2CCc3ccccc32)c2nc3ccccc3[nH]2)cc1 (stereo partly drawn) [Example 72, 1-((R)-1-(1H-Benzo[d]imidazol-2-yl)-2-(4-methoxyphenyl)ethyl)-3-((2,3-dihydro-1H-inden-1-yl)methyl)urea]
0.053 µM	COc1ccc(C[C@@H](NC(=O)NC2CCN(C3CC3)CC2)c2nc3ccccc3[nH]2)cc1 [Example 71, (R)-1-(1-(1H-Benzo[d]imidazol-2-yl)-2-(4-methoxyphenyl)ethyl)-3-(1-cyclopropylpiperidin-4-yl)urea]
0.051 µM	COc1ccc(C[C@@H](NC(=O)NCc2cccnc2OCC(F)(F)F)c2nc3ccccc3[nH]2)cc1 [Example 64, (R)-1-(1-(1H-Benzo[d]imidazol-2-yl)-2-(4-methoxyphenyl)ethyl)-3-((2-(2,2,2-trifluoroethoxy)pyridin-3-yl)methyl)urea hydrochloride]
0.048 µM	COc1ccc(C[C@@H](NC(=O)NCc2ccccc2CN2CCOCC2)c2nc3ccccc3[nH]2)cc1 [Example 62, (R)-1-(1-(1H-Benzo[d]imidazol-2-yl)-2-(4-methoxyphenyl)ethyl)-3-(2-(morpholinomethyl)benzyl)urea dihydrochloride]
0.041 µM	COc1ccc(C[C@@H](NC(=O)NC2CCCC2)c2nc3ccccc3[nH]2)cc1 [Example 75, (R)-1-(1-(1H-Benzo[d]imidazol-2-yl)-2-(4-methoxyphenyl)ethyl)-3-cyclopentylurea]
0.023 µM	COc1ccc(C[C@@H](NC(=O)NCc2ccccc2COC(C)C)c2nc3ccccc3[nH]2)cc1 [Example 58, (R)-1-(1-(1H-Benzo[d]imidazol-2-yl)-2-(4-methoxyphenyl)ethyl)-3-(2-(isopropoxymethyl)benzyl)urea]
0.017 µM	COCC(Cc1ccccc1)NC(=O)N[C@H](Cc1ccc(OC)cc1)c1nc2ccccc2[nH]1 (stereo partly drawn) [Example 70, 1-((R)-1-(1H-Benzo[d]imidazol-2-yl)-2-(4-methoxyphenyl)ethyl)-3-(1-methoxy-3-phenylpropan-2-yl)urea]
0.013 µM	COc1ccc(CC(NC(=O)NC2CCC(CO)CC2)c2nc3ccccc3[nH]2)cc1 (stereo not shown) [Example 74, 1-(1-(1H-Benzo[d]imidazol-2-yl)-2-(4-methoxyphenyl)ethyl)-3-(4-(hydroxymethyl)cyclohexyl)urea]
0.011 µM	COc1ccc(C[C@@H](NC(=O)N[C@H]2CC[C@H](O)CC2)c2nc3cc(OC)ccc3[nH]2)cc1 [Example 84, 1-(trans-4-Hydroxycyclohexyl)-3-((R)-1-(5-methoxy-1H-benzo[d]imidazol-2-yl)-2-(4-methoxyphenyl)ethyl)urea]
0.0017 µM	COc1ccc(C[C@@H](NC(=O)N[C@H]2CC[C@H](O)CC2)c2nc3cc(C)ccc3[nH]2)cc1 [Example 83, 1-(trans-4-Hydroxycyclohexyl)-3-((R)-2-(4-methoxyphenyl)-1-(5-methyl-1H-benzo[d]imidazol-2-yl)ethyl)urea]
0.0016 µM	COc1ccc(C[C@@H](NC(=O)N[C@H]2CC[C@H](O)CC2)c2nc3cc(F)ccc3[nH]2)cc1 [Example 85, 1-((R)-1-(5-Fluoro-1H-benzo[d]imidazol-2-yl)-2-(4-methoxyphenyl)ethyl)-3-(trans-4-hydroxycyclohexyl)urea]
